# Measurements: patent publication US20170362621A1, “ENGINEERED MULTIFUNCTIONAL ENZYMES AND METHODS OF USE” (Danisco US Inc., priority 2014, published 2017)
# Changes are numbered by the printed parent chain. Names and notes keep the numbering of the source.
# T1: Trichoderma reesei Bgl1 variant Bgl1-var-02, V43F (numbered per mature Bgl1, SEQ ID NO:3) (Trichoderma reesei, UniProt Q12715, V74F)
# T1 construct: diluted fermentation product
# T1 sequence (Q12715 32-744 V74F): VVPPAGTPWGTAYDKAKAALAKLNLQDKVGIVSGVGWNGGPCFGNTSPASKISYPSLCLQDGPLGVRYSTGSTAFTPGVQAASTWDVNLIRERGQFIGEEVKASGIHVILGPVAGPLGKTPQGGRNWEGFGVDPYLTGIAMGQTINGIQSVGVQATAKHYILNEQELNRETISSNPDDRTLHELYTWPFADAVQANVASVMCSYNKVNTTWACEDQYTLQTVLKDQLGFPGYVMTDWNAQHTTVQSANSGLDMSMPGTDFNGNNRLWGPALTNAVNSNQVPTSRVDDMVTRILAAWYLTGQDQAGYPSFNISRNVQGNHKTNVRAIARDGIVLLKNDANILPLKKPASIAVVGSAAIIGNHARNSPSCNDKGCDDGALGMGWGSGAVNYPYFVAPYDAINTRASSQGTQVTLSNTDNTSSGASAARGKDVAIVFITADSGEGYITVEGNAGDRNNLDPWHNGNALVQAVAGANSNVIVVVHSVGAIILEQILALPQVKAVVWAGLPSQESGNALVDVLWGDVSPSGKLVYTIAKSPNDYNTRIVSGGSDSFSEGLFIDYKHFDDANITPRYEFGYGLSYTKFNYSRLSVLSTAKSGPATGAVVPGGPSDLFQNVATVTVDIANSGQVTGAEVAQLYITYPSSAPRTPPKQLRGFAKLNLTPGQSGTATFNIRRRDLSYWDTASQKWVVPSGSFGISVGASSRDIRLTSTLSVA
# T2: Trichoderma reesei Bgl1 variant Bgl1-var-03, V43L (numbered per mature Bgl1, SEQ ID NO:3) (Trichoderma reesei, UniProt Q12715, V74L)
# T2 construct: diluted fermentation product
# T2 sequence (Q12715 32-744 V74L): T1 sequence (Q12715 32-744 V74F) with F43L
# T3: Trichoderma reesei Bgl1 variant Bgl1-var-12, V43F/W237A (numbered per mature Bgl1, SEQ ID NO:3) (Trichoderma reesei, UniProt Q12715, V74F/W268A)
# T3 construct: diluted fermentation product
# T3 sequence (Q12715 32-744 V74F/W268A): T1 sequence (Q12715 32-744 V74F) with W237A
# T4: Trichoderma reesei beta-glucosidase I (Bgl1), wild type, SEQ ID NO:2 (mature SEQ ID NO:3) (Trichoderma reesei, UniProt Q12715)
# T4 construct: secreted mature protein
# T4 sequence (Q12715 32-744): T1 sequence (Q12715 32-744 V74F) with F43V
# B1: Trichoderma reesei Bgl1 variant Bgl1-var-02, V43F (numbered per mature Bgl1, SEQ ID NO:3) (Trichoderma reesei; V74F) (protein)
# chain: T1 sequence (Q12715 32-744 V74F)
# notes: diluted fermentation product
# B2: Trichoderma reesei Bgl1 variant Bgl1-var-12, V43F/W237A (numbered per mature Bgl1, SEQ ID NO:3) (Trichoderma reesei; V74F/W268A) (protein)
# chain: T1 sequence (Q12715 32-744 V74F) with W237A
# notes: diluted fermentation product
# B3: Trichoderma reesei beta-glucosidase I (Bgl1), wild type, SEQ ID NO:2 (mature SEQ ID NO:3) (Trichoderma reesei) (protein)
# chain: T1 sequence (Q12715 32-744 V74F) with F43V
# notes: secreted mature protein
# B4: Trichoderma reesei Bgl1 variant Bgl1-var-03, V43L (numbered per mature Bgl1, SEQ ID NO:3) (Trichoderma reesei; V74L) (protein)
# chain: T1 sequence (Q12715 32-744 V74F) with F43L
# notes: diluted fermentation product
# Columns and labels:
# [1] = target: T1, Trichoderma reesei Bgl1 variant Bgl1-var-02, V43F (numbered per mature Bgl1, SEQ ID NO:3); assay: steady state kinetics, hydrolysis of pNpX; assay type: biochemical
# Description: (§1) The Bgl1 variants of the table above were produced as follows. The nucleotide sequences encoding these variants were synthesized by an external vendor (BaseClear, Leiden, the Netherlands), and cloned into the pTTTpyr2 vector (see, e.g., published PCT application WO2014029808). Protoplasts of a Trichoderma reesei strain (e.g., the hexa-delete strain of International Publication WO05/001036) with its cbh1, cbh2, eg1, eg2, eg3, and bgl1 deleted) were transformed with plasmid DNA encoding the variants and wild type. The resulting transformants were fermented using standard Trichoderma reesei fermentation procedures.
# (§2) Variants 02, 03 and 12 were diluted and incubated with varying concentrations of para-nitrophenol-beta-D-xylopyranoside (or para-nitrophenol-beta-D-xyloside) (pNpX) and para-nitrophenol-beta-D-glucopyranoside (pNpG) in the concentration range of 0.1-9 mM at 37° C. for 30 minutes. Reactions were stopped by addition of 100 μL 0.5 M sodium carbonate and absorbance was measured at 410 nm. Background subtracted OD410 absorbances were plotted against substrate concentration (FIG. 6B-E) and the data was fitted with a function for Michaelis-Menten kinetics using the statistical software package R. Michaelis constants and relative maximum velocities for hydrolysis of pNpX and pNpG were reported in Tables 6 and 7, below, respectively.
# (§3) It was noted that the data for pNpX hydrolysis by the wild type Bgl1 could not be fitted with the Michaelis-Menten function. In order to calculate a Michalis constant the maximum velocity obtained for Variant 03 was used.
# [2] = target: T2, Trichoderma reesei Bgl1 variant Bgl1-var-03, V43L (numbered per mature Bgl1, SEQ ID NO:3); assay: steady state kinetics, hydrolysis of pNpX; assay type: biochemical
# Description: as §1, §2, §3
# [3] = target: T3, Trichoderma reesei Bgl1 variant Bgl1-var-12, V43F/W237A (numbered per mature Bgl1, SEQ ID NO:3); assay: steady state kinetics, hydrolysis of pNpX; assay type: biochemical
# Description: as §1, §2, §3
# [4] = target: T4, Trichoderma reesei beta-glucosidase I (Bgl1), wild type, SEQ ID NO:2 (mature SEQ ID NO:3); assay: steady state kinetics, hydrolysis of pNpX; assay type: biochemical; conditions: not fitted, maximum velocity obtained for Variant 03 was used
# Description: as §1, §2, §3
# [5] = target: T1, Trichoderma reesei Bgl1 variant Bgl1-var-02, V43F (numbered per mature Bgl1, SEQ ID NO:3); assay: steady state kinetics, hydrolysis of pNpG; assay type: biochemical
# Description: as §1, §2
# [6] = target: T2, Trichoderma reesei Bgl1 variant Bgl1-var-03, V43L (numbered per mature Bgl1, SEQ ID NO:3); assay: steady state kinetics, hydrolysis of pNpG; assay type: biochemical
# Description: as §1, §2
# [7] = target: T3, Trichoderma reesei Bgl1 variant Bgl1-var-12, V43F/W237A (numbered per mature Bgl1, SEQ ID NO:3); assay: steady state kinetics, hydrolysis of pNpG; assay type: biochemical
# Description: as §1, §2
# [8] = target: T4, Trichoderma reesei beta-glucosidase I (Bgl1), wild type, SEQ ID NO:2 (mature SEQ ID NO:3); assay: steady state kinetics, hydrolysis of pNpG; assay type: biochemical; conditions: 0.1-9 mM, 37° C., 30 minutes
# Description: as §1, §2
# [9] = substrate: O=[N+]([O-])c1ccc(O[C@@H]2OC[C@@H](O)[C@H](O)[C@H]2O)cc1; assay: steady state kinetics, hydrolysis of pNpX; assay type: biochemical, Trichoderma reesei; conditions: other: pNpX, 37° C.
# Description: as §1, §2, §3
# [10] = substrate: O=[N+]([O-])c1ccc(O[C@@H]2O[C@H](CO)[C@@H](O)[C@H](O)[C@H]2O)cc1; assay: steady state kinetics, hydrolysis of pNpG; assay type: biochemical, Trichoderma reesei; conditions: other: pNpG, 0.1-9 mM, 37° C., 30 minutes
# Description: as §1, §2
# [11] = pNpX, 0.1-9 mM, 37° C., 30 minutes
# [12] = fold reduction versus wild type, Table 7
# [13] = pNpG, 0.1-9 mM, 37° C., 30 minutes
molecule,measurement,setting,value
"O=[N+]([O-])c1ccc(O[C@@H]2OC[C@@H](O)[C@H](O)[C@H]2O)cc1 [pNpX, para-nitrophenol-beta-D-xylopyranoside]",Relative Vmax,[1]; [11],93 ± 4
same,more efficient hydrolysis of pNpX as compared to the wild type Bgl1,"[1]; ratio to wild type, Table 6",6-7 fold
same,Relative Vmax,[2]; [11],100 ± 4
same,more efficient hydrolysis of pNpX as compared to the wild type Bgl1,"[2]; ratio to wild type, Table 6",6-7 fold
same,Relative Vmax,[3]; [11],89 ± 4
same,higher efficiency of pNpX hydrolysis than the wild type,"[3]; ratio to wild type, Table 6",about 2 ×
same,Relative Vmax,[4],100 ± 4
"O=[N+]([O-])c1ccc(O[C@@H]2O[C@H](CO)[C@@H](O)[C@H](O)[C@H]2O)cc1 [pNpG, para-nitrophenol-beta-D-glucopyranoside]","efficiency for hydrolysis of pNpG, reduced relative to Bgl1 wild type",[5]; [12],8 ×
same,Relative Vmax,[5]; [13],46 ± 6
same,Relative Vmax,[6]; [13],87 ± 2
same,efficiency for hydrolysis of pNpG compared with Bgl1 wild type,"[6]; versus wild type, Table 7",approximately equal
same,"efficiency for hydrolysis of pNpG, reduced relative to Bgl1 wild type",[7]; [12],26 ×
same,Relative Vmax,[7]; [13],27 ± 10
same,Relative Vmax,[8],100.0 ± 0.1
B1,Km,"[9]; 0.1-9 mM, 30 minutes",5.7 mM
same,Km,[10],4.8 mM
B2,Km,"[9]; 0.1-9 mM, 30 minutes",18.4 mM
same,Km,[10],9.1 mM
B3,Km,"[9]; data could not be fitted, calculated with the maximum velocity obtained for Variant 03",45.1 mM
same,Km,[10],1.3 mM
B4,Km,"[9]; 0.1-9 mM, 30 minutes",7 mM
same,Km,[10],1.17 mM
